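Briefly, cells in 96-well plates were exposed to five compound concentrations for 48 h, and endpoints were estimated by linear interpolation. TGI: total growth inhibition.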
What was measured:
Assay in all cases: DTP human tumour cell line panel, 48 h
DU-145 prostate = tested on: DU-145 prostate
NCI-H522 lung = tested on: NCI-H522 lung
A498 renal = tested on: A498 renal
KM12 colon = tested on: KM12 colon
TK-10 renal = tested on: TK-10 renal
ACHN renal = tested on: ACHN renal
NCI-H226 lung = tested on: NCI-H226 lung
SF-268 CNS = tested on: SF-268 CNS
CCRF-CEM leukemia = tested on: CCRF-CEM leukemia
EKVX NSCLC = tested on: EKVX NSCLC
HCT-15 colon = tested on: HCT-15 colon
SNB-19 CNS = tested on: SNB-19 CNS
MOLT-4 leukemia = tested on: MOLT-4 leukemia
T-47D breast = tested on: T-47D breast
LOX IMVI melanoma = tested on: LOX IMVI melanoma
SK-MEL-28 melanoma = tested on: SK-MEL-28 melanoma
SN12C renal = tested on: SN12C renal
SK-MEL-2 melanoma = tested on: SK-MEL-2 melanoma
NCI-H23 lung = tested on: NCI-H23 lung
CAKI-1 renal = tested on: CAKI-1 renal
OVCAR-8 ovarian = tested on: OVCAR-8 ovarian
MDA-MB-231 breast = tested on: MDA-MB-231 breast
SF-295 CNS = tested on: SF-295 CNS
COLO 205 colon = tested on: COLO 205 colon
SK-MEL-5 melanoma = tested on: SK-MEL-5 melanoma
UACC-62 melanoma = tested on: UACC-62 melanoma
MCF7 breast = tested on: MCF7 breast
786-0 renal = tested on: 786-0 renal
HL-60(TB) leukemia = tested on: HL-60(TB) leukemia
OVCAR-3 ovarian = tested on: OVCAR-3 ovarian
MDA-MB-435 = tested on: MDA-MB-435
UO-31 renal = tested on: UO-31 renal
MDA-N = tested on: MDA-N
SR leukemia = tested on: SR leukemia
NCI-H460 lung = tested on: NCI-H460 lung
HCC-2998 colon = tested on: HCC-2998 colon
SNB-75 CNS = tested on: SNB-75 CNS
SF-539 CNS = tested on: SF-539 CNS
SK-OV-3 ovarian = tested on: SK-OV-3 ovarian
M14 melanoma = tested on: M14 melanoma
SW-620 colon = tested on: SW-620 colon
HOP-62 NSCLC = tested on: HOP-62 NSCLC
RPMI-8226 leukemia = tested on: RPMI-8226 leukemia
UACC-257 melanoma = tested on: UACC-257 melanoma
U251 CNS = tested on: U251 CNS
BT-549 breast = tested on: BT-549 breast
OVCAR-4 ovarian = tested on: OVCAR-4 ovarian
HCT-116 colon = tested on: HCT-116 colon
HOP-92 NSCLC = tested on: HOP-92 NSCLC
HT29 colon = tested on: HT29 colon
A549 NSCLC = tested on: A549 NSCLC
NCI/ADR-RES ovarian = tested on: NCI/ADR-RES ovarian
HS 578T breast = tested on: HS 578T breast
MALME-3M melanoma = tested on: MALME-3M melanoma
PC-3 prostate = tested on: PC-3 prostate
OVCAR-5 ovarian = tested on: OVCAR-5 ovarian
K-562 leukemia = tested on: K-562 leukemia
RXF 393 renal = tested on: RXF 393 renal
IGROV1 ovarian = tested on: IGROV1 ovarian

In the case of `O=C(c1c(Cl)cc(Cl)cc1Cl)N(Cc1cccnc1)C(=S)N(Cc1cccnc1)C(=O)c1c(Cl)cc(Cl)cc1Cl`, the TGI (DU-145 prostate) was 17.2 µM, the TGI (NCI-H522 lung) was 25.6 µM and the TGI (A498 renal) was 51.6 µM. For the same molecule, the TGI (KM12 colon) was 10.3 µM, the TGI (TK-10 renal) was 11.1 µM and the TGI (ACHN renal) was 41.1 µM. The TGI (NCI-H226 lung) was 45.1 µM, the TGI (SF-268 CNS) was 27.8 µM and the TGI (CCRF-CEM leukemia) was greater than 100 µM. For the same molecule, the TGI (EKVX NSCLC) was 35.3 µM, the TGI (HCT-15 colon) was 11.2 µM and the TGI (SNB-19 CNS) was 52.4 µM. For the same molecule, the TGI (MOLT-4 leukemia) was greater than 100 µM, the TGI (T-47D breast) was 41.4 µM and the TGI (LOX IMVI melanoma) was 15.1 µM. It also gave a TGI (SK-MEL-28 melanoma) of 47.9 µM, a TGI (SN12C renal) of 20.5 µM and a TGI (SK-MEL-2 melanoma) of 36 µM. It also gave a TGI (NCI-H23 lung) of 23.5 µM, a TGI (CAKI-1 renal) of 19.8 µM and a TGI (OVCAR-8 ovarian) of 16.5 µM. It also gave a TGI (MDA-MB-231 breast) of 40.9 µM, a TGI (SF-295 CNS) of 43.2 µM and a TGI (COLO 205 colon) of 21.9 µM. The TGI (SK-MEL-5 melanoma) was 26.4 µM, the TGI (UACC-62 melanoma) was 34.2 µM and the TGI (MCF7 breast) was 15.8 µM. For the same molecule, the TGI (786-0 renal) was 10.5 µM, the TGI (HL-60(TB) leukemia) was 64.7 µM and the TGI (OVCAR-3 ovarian) was 13.9 µM. For the same molecule, the TGI (MDA-MB-435) was 26.5 µM, the TGI (UO-31 renal) was 19.4 µM and the TGI (MDA-N) was 5.2 µM. It also gave a TGI (SR leukemia) greater than 100 µM, a TGI (NCI-H460 lung) of 32.9 µM and a TGI (HCC-2998 colon) of 7.4 µM. It also gave a TGI (SNB-75 CNS) of 14.2 µM, a TGI (SF-539 CNS) of 28.4 µM and a TGI (SK-OV-3 ovarian) of 77 µM. It also gave a TGI (M14 melanoma) of 26.5 µM, a TGI (SW-620 colon) greater than 100 µM and a TGI (HOP-62 NSCLC) of 20.3 µM. For the same molecule, the TGI (RPMI-8226 leukemia) was greater than 100 µM, the TGI (UACC-257 melanoma) was 22.8 µM and the TGI (U251 CNS) was 27.3 µM. It also gave a TGI (BT-549 breast) of 9.59 µM, a TGI (OVCAR-4 ovarian) of 5.25 µM and a TGI (HCT-116 colon) of 11.1 µM. The TGI (HOP-92 NSCLC) was 10.6 µM, the TGI (HT29 colon) was 13.2 µM and the TGI (A549 NSCLC) was greater than 100 µM. For the same molecule, the TGI (NCI/ADR-RES ovarian) was 34.3 µM, the TGI (HS 578T breast) was 58.4 µM and the TGI (MALME-3M melanoma) was 42.4 µM. The TGI (PC-3 prostate) was 24 µM, the TGI (OVCAR-5 ovarian) was 40.8 µM and the TGI (K-562 leukemia) was greater than 100 µM.

`Cn1c(=O)n2c(=O)n(C)c(=O)n2c1=O` showed a TGI (DU-145 prostate) greater than 100 µM, a TGI (NCI-H522 lung) greater than 100 µM and a TGI (A498 renal) greater than 100 µM. The TGI (KM12 colon) was greater than 100 µM, the TGI (TK-10 renal) was greater than 100 µM and the TGI (NCI-H226 lung) was greater than 100 µM. The TGI (SF-268 CNS) was greater than 100 µM, the TGI (CCRF-CEM leukemia) was greater than 100 µM and the TGI (EKVX NSCLC) was greater than 100 µM. For the same molecule, the TGI (HCT-15 colon) was greater than 100 µM, the TGI (SNB-19 CNS) was greater than 100 µM and the TGI (MOLT-4 leukemia) was greater than 100 µM. The TGI (T-47D breast) was greater than 100 µM, the TGI (LOX IMVI melanoma) was greater than 100 µM and the TGI (SK-MEL-28 melanoma) was greater than 100 µM. It also gave a TGI (SN12C renal) greater than 100 µM, a TGI (SK-MEL-2 melanoma) greater than 100 µM and a TGI (NCI-H23 lung) greater than 100 µM. It also gave a TGI (CAKI-1 renal) greater than 100 µM, a TGI (OVCAR-8 ovarian) greater than 100 µM and a TGI (RXF 393 renal) greater than 100 µM. For the same molecule, the TGI (MDA-MB-231 breast) was greater than 100 µM, the TGI (COLO 205 colon) was greater than 100 µM and the TGI (SK-MEL-5 melanoma) was greater than 100 µM. It also gave a TGI (UACC-62 melanoma) greater than 100 µM, a TGI (MCF7 breast) greater than 100 µM and a TGI (786-0 renal) greater than 100 µM. The TGI (HL-60(TB) leukemia) was greater than 100 µM, the TGI (OVCAR-3 ovarian) was greater than 100 µM and the TGI (MDA-MB-435) was greater than 100 µM. For the same molecule, the TGI (UO-31 renal) was greater than 100 µM, the TGI (MDA-N) was greater than 100 µM and the TGI (SR leukemia) was greater than 100 µM. It also gave a TGI (NCI-H460 lung) greater than 100 µM, a TGI (HCC-2998 colon) greater than 100 µM and a TGI (SNB-75 CNS) greater than 100 µM. The TGI (SF-539 CNS) was greater than 100 µM, the TGI (SK-OV-3 ovarian) was greater than 100 µM and the TGI (M14 melanoma) was greater than 100 µM. For the same molecule, the TGI (SW-620 colon) was greater than 100 µM, the TGI (RPMI-8226 leukemia) was greater than 100 µM and the TGI (UACC-257 melanoma) was greater than 100 µM. The TGI (U251 CNS) was greater than 100 µM, the TGI (BT-549 breast) was greater than 100 µM and the TGI (OVCAR-4 ovarian) was greater than 100 µM. For the same molecule, the TGI (HCT-116 colon) was greater than 100 µM, the TGI (HT29 colon) was greater than 100 µM and the TGI (A549 NSCLC) was greater than 100 µM. It also gave a TGI (NCI/ADR-RES ovarian) greater than 100 µM, a TGI (HS 578T breast) greater than 100 µM and a TGI (MALME-3M melanoma) greater than 100 µM. The TGI (PC-3 prostate) was greater than 100 µM, the TGI (IGROV1 ovarian) was greater than 100 µM and the TGI (OVCAR-5 ovarian) was greater than 100 µM. For the same molecule, the TGI (K-562 leukemia) was greater than 100 µM.

`CC(=O)OCCOCn1cc(C=O)c2ccccc21` showed a TGI (DU-145 prostate) greater than 100 µM, a TGI (NCI-H522 lung) greater than 100 µM and a TGI (A498 renal) of 3.89 µM. The TGI (KM12 colon) was greater than 100 µM, the TGI (TK-10 renal) was greater than 100 µM and the TGI (ACHN renal) was greater than 100 µM. It also gave a TGI (SF-268 CNS) greater than 100 µM, a TGI (CCRF-CEM leukemia) greater than 100 µM and a TGI (EKVX NSCLC) greater than 100 µM. The TGI (HCT-15 colon) was greater than 100 µM, the TGI (SNB-19 CNS) was greater than 100 µM and the TGI (MOLT-4 leukemia) was greater than 100 µM. For the same molecule, the TGI (T-47D breast) was greater than 100 µM, the TGI (LOX IMVI melanoma) was greater than 100 µM and the TGI (SK-MEL-28 melanoma) was greater than 100 µM. It also gave a TGI (SN12C renal) greater than 100 µM, a TGI (SK-MEL-2 melanoma) greater than 100 µM and a TGI (NCI-H23 lung) greater than 100 µM. The TGI (CAKI-1 renal) was greater than 100 µM, the TGI (OVCAR-8 ovarian) was greater than 100 µM and the TGI (RXF 393 renal) was greater than 100 µM. The TGI (MDA-MB-231 breast) was greater than 100 µM, the TGI (SF-295 CNS) was greater than 100 µM and the TGI (COLO 205 colon) was greater than 100 µM. For the same molecule, the TGI (SK-MEL-5 melanoma) was greater than 100 µM, the TGI (UACC-62 melanoma) was greater than 100 µM and the TGI (MCF7 breast) was greater than 100 µM. The TGI (786-0 renal) was greater than 100 µM, the TGI (HL-60(TB) leukemia) was greater than 100 µM and the TGI (OVCAR-3 ovarian) was greater than 100 µM. For the same molecule, the TGI (MDA-MB-435) was greater than 100 µM, the TGI (UO-31 renal) was greater than 100 µM and the TGI (MDA-N) was greater than 100 µM. For the same molecule, the TGI (SR leukemia) was greater than 100 µM, the TGI (NCI-H460 lung) was greater than 100 µM and the TGI (HCC-2998 colon) was greater than 100 µM. The TGI (SNB-75 CNS) was greater than 100 µM, the TGI (SF-539 CNS) was greater than 100 µM and the TGI (SK-OV-3 ovarian) was greater than 100 µM. The TGI (M14 melanoma) was greater than 100 µM, the TGI (SW-620 colon) was greater than 100 µM and the TGI (HOP-62 NSCLC) was greater than 100 µM. For the same molecule, the TGI (RPMI-8226 leukemia) was greater than 100 µM, the TGI (UACC-257 melanoma) was greater than 100 µM and the TGI (U251 CNS) was greater than 100 µM. It also gave a TGI (BT-549 breast) greater than 100 µM, a TGI (HCT-116 colon) greater than 100 µM and a TGI (HOP-92 NSCLC) greater than 100 µM. It also gave a TGI (HT29 colon) greater than 100 µM, a TGI (A549 NSCLC) greater than 100 µM and a TGI (NCI/ADR-RES ovarian) greater than 100 µM. It also gave a TGI (HS 578T breast) greater than 100 µM, a TGI (MALME-3M melanoma) greater than 100 µM and a TGI (PC-3 prostate) greater than 100 µM. For the same molecule, the TGI (IGROV1 ovarian) was greater than 100 µM, the TGI (OVCAR-5 ovarian) was greater than 100 µM and the TGI (K-562 leukemia) was greater than 100 µM.

Source: PubChem BioAssay (NCI)
